What all share (type): physicochemical
Data set [1] is described as follows: Hygroscopicity and humidity stability by DVS (0% RH-95% RH-0% RH cycle at 25° C., XRPD before and after). The conditions noted are these: for Hygroscopicity (in words) / Weight gain (water uptake) at 80% RH: DVS; for Form change after DVS test (humidity stability): one cycle 0% RH-95% RH-0% RH, XRPD. The method, then: DVS data in the present disclosure were measured via an SMS (Surface Measurement Systems Ltd.) intrinsic DVS instrument. The instrument control software is DVS-Intrinsic control software. Typical Parameters for DVS test are as follows: • Temperature: 25° C. • Gas and flow rate: N2, 200 mL/minRH range: 0% RH to 95% RH
The hygroscopicity of Form CSI was determined by a DVS instrument with a certain amount of sample. The mass at each relative humidity was recorded during a cycle of 0% RH-95% RH-0% RH at 25° C., and XRPD was collected before and after DVS test.
The hygroscopicity of Form CSII was determined by DVS instrument with a certain amount of sample. The mass at each relative humidity was recorded during the cycle of 0% RH-95% RH-0% RH at 25° C., and XRPD was tested before and after DVS.

The nature of data set [2]: Physical stability upon mechanical force (ball-milling, XRPD before and after grinding). As to conditions: 500 rpm, 5 minutes. The method, then:
Form CSI was ground using a ball-milling at a vibration speed of 500 rpm for 5 minutes.
Form CSII was ground using a ball-milling at a vibration speed of 500 rpm for 5 minutes.

Data set [3] can be described thus: Storage stability of solid forms (crystalline form by XRPD, chemical purity by HPLC). As to conditions: for Purity after storage: HPLC. The method, then:
XRPD patterns in the present disclosure were acquired by a Bruker X-ray powder diffractometer. The parameters of the X-ray powder diffraction method of the present disclosure are as follows: • X-Ray source: Cu, Kα • Kα1 (Å): 1.54060; Kα2 (Å): 1.54439 • Kα2/Kα1 intensity ratio: 0.50
A certain amount of the prior art solid obtained in Example 4 was packaged with sealed container (with desiccant inside), and stored under 40° C./75% RH. The solid form before and after storage was confirmed by XRPD.
A certain amount of Form CSI was packaged with corresponding package conditions, and then stored under 25° C./60% RH, 40° C./75% RH and 60° C./75% RH. Crystalline form and chemical purity were checked by XRPD and HPLC, respectively. Form CSI kept stable for at least 6 months when stored at 25° C./60% RH open and sealed (with desiccants) package, 40° C./75% RH open and sealed (with desiccants) package, and 60° C./75% RH sealed (with desiccants) package.
A certain amount of Form CSII sample was packaged with corresponding package conditions, and then stored at 25° C./60% RH and 40° C./75% RH. Crystalline form was checked by XRPD. Form CSII kept stable for at least 1 month for both open and sealed (with desiccants) package conditions at 25° C./60% RH and 40° C./75% RH.

The values that follow come from patent publication US20250145588A1, “CRYSTAL FORM OF TAVAPADON, AND PREPARATION METHOD THEREFOR AND USE THEREOF” (CRYSTAL PHARMACEUTICAL (SUZHOU) CO., LTD., priority 2022, published 2025).

“Also recorded” adds a separate entry of the source.

For the compound `Cc1cc(Oc2ncccc2C(F)(F)F)ccc1-c1c(C)c(=O)[nH]c(=O)n1C` (single isomer, unassigned) [Form CSII], in data set [1], the “Hygroscopicity (in words)” value is “almost non hygroscopic”, the “Weight gain (water uptake) at 80% RH” value turned out to be 0.19% and the “Form change after DVS test (humidity stability)” value is “No form change; also recorded: remains unchanged”. Also, the “Form change after grinding” value in data set [2] was “no form change; also recorded: doesn't change after grinding”. In data set [3] (25° C./60% RH, sealed (with desiccants), 1 month, XRPD), the “Solid form after storage” value was “Form CSII”. Besides, the “Solid form after storage” value in data set [3] (40° C./75% RH, sealed (with desiccants), 1 month, XRPD) is “remains unchanged; also recorded: Form CSII”. In addition, the “Time kept stable on storage” value in data set [3] (open and sealed (with desiccants) package at 25° C./60% RH and 40° C./75% RH) is recorded as “at least 1 month”.
As to `Cc1cc(Oc2ncccc2C(F)(F)F)ccc1-c1c(C)c(=O)[nH]c(=O)n1C` (single isomer, unassigned) [Form CSI], in data set [1], the “Hygroscopicity (in words)” value was “almost non hygroscopic”. Moreover, the “Weight gain (water uptake) at 80% RH” value in data set [1] worked out at 0.05%. Also, in data set [1], the “Form change after DVS test (humidity stability)” value was “No form change; also recorded: remains unchanged”. Moreover, the “Form change after grinding” value in data set [2] is reported as “no form change; also recorded: doesn't change after grinding”. Also, the “Time kept stable on storage” value in data set [3] (25° C./60% RH open and sealed (with desiccants), 40° C./75% RH open and sealed (with desiccants), 60° C./75% RH sealed (with desiccants)) is “at least 6 months”. Also, the Purity after storage was 99.85% in data set [3] (25° C./60% RH, open, 6 months); 99.85% in data set [3] (25° C./60% RH, sealed (with desiccants), 6 months); 99.85% in data set [3] (40° C./75% RH, open, 6 months); 99.85% in data set [3] (40° C./75% RH, sealed (with desiccants), 6 months); 99.85% in data set [3] (60° C./75% RH, sealed (with desiccants), 6 months). Moreover, the “Solid form after storage” value in data set [3] (25° C./60% RH, open, 6 months, XRPD) is “Form CSI”; in data set [3] (25° C./60% RH, sealed (with desiccants), 6 months, XRPD), “Form CSI”; in data set [3] (40° C./75% RH, open, 6 months, XRPD), “Form CSI”; in data set [3] (40° C./75% RH, sealed (with desiccants), 6 months, XRPD), “Form CSI”; in data set [3] (60° C./75% RH, sealed (with desiccants), 6 months, XRPD), “Form CSI”. Besides, the “Time remaining unchanged on storage” value is “at least 6 months” in data set [3] (40° C./75% RH) and “at least 6 months” in data set [3] (60° C./75% RH, sealed package).
Regarding `Cc1cc(Oc2ncccc2C(F)(F)F)ccc1-c1c(C)c(=O)[nH]c(=O)n1C` [prior art solid, reference compound], the “Solid form change after storage” value in data set [3] (40° C./75% RH, sealed container with desiccant, 10 days, XRPD) was “undergoes crystal transformation; also recorded: undergoes crystalline transformation”.
